What all share (assay type): biochemical
One assay has as its target T1, PI3Kα (Homo sapiens, UniProt P42336).
T1 construct: purchased Invitrogen or Millipore
Description: KinaseGLO luminescent PI3-kinase assay, PI3Kα. As to the method: (§1) Compound Preparation: KinaseGLO assay: 30× stocks of inhibitors were prepared in DMSO. A 10 mM master stock was prepared and all other stocks were generated by serial dilution of this master stock in DMSO. The final concentration of DMSO in the kinase reaction was 3.3% (v/v).
(§2) PI3-Kinase Assay: The KinaseGLO® Luminescent Kinase Assay (Promega) is a luciferin-luciferase based luminescent assay that utilizes a proprietary thermostable luciferase to quantify the ATP remaining in a solution after a kinase reaction. The luminescent signal generated using KinaseGLO® directly correlates with ATP concentration, and therefore inversely correlates with kinase activity.
PI3K enzyme sample was thawed and diluted to 100 ng/μL in enzyme dilution buffer (50 mM HEPES, pH7.5, 3.0 mM MgCl2, 1.0 mM EGTA) and stored on ice. PI3Kα enzyme was diluted to a final concentration of 1 ng/μL in reaction buffer (for PI3Kα; 50 mM HEPES, pH7.5, 100 mM NaCl, 2.0 mM DTT, 3.0 mM MgCl2, 1.0 mM EGTA, 10 μM ATP) and gently mixed. 25 μL of this kinase reaction was then aliquoted into test wells in a Microfluor2 white 96-well plate (Thermo Scientific). As a preincubation step, 1 μl of 30× compound dilutions was added to the appropriate test wells to generate a ten point dose-response ranging from 0.0 μM-10 μM inhibitor. The enzyme-inhibitor mixture was then incubated for 30 minutes at 4° C. After this preincubation, […] (50 μM final concentration) was added to each test well to initiate the kinase reaction. Reactions were incubated at room temperature for 2 hours with moderate shaking. The KinaseGLO® luminescent reagent (Promega) was prepared according to the manufacturer's instructions. Both the KinaseGLO® buffer and substrate were allowed to thaw and equilibrate at room temperature for two hours prior to mixing and use. The PI3-kinase reaction was terminated by the addition of 30 μL of reconstituted KinaseGLO® reagent to each reaction well and then incubated in the dark for 10 minutes at room temperature. Luminescent signal was detected using a SpectraMax M5 (Molecular Devices). Maximal luminescence (no PI3K activity/maximal PI3K inhibition) was determined from reaction buffer plus SC-PI substrate only controls. The minimal signal (maximal PI3K activity) was determined by the 0.0 μM compound (DMSO only) control. IC50 values were calculated via non-linear regression using GraphPad Prism data analysis software.
(§3) Compounds were assayed against the Class I PI3Kα, PI3Kβ, PI3Kγ, PI3Kδ, PI3Kα(H1047R) and PI3Kα(E545K) in the KinaseGLO assay as described in Example 2, and against the Class IV PI3K mTOR in the radiometric assay. IC50 values (μM) were determined using 8-10 point half-log dose dilutions and calculated via nonlinear regression analysis using Graphpad Prism data analysis software.

In another assay the target is T2, PI3Kβ (Homo sapiens, UniProt P42338).
T2 construct: purchased Invitrogen or Millipore
Put plainly: KinaseGLO luminescent PI3-kinase assay, PI3Kβ. Here is the method:
as §1, §2
PI3K enzyme sample was thawed and diluted to 100 ng/μL in enzyme dilution buffer (50 mM HEPES, pH7.5, 3.0 mM MgCl2, 1.0 mM EGTA) and stored on ice. PI3Kα enzyme was diluted to a final concentration of 1 ng/μL in reaction buffer (for PI3Kα; 50 mM HEPES, pH7.5, 100 mM NaCl, 2.0 mM DTT, 3.0 mM MgCl2, 1.0 mM EGTA, 10 μM ATP) and gently mixed. 25 μL of this kinase reaction was then aliquoted into test wells in a Microfluor2 white 96-well plate (Thermo Scientific). As a preincubation step, 1 μl of 30× compound dilutions was added to the appropriate test wells to generate a ten point dose-response ranging from 0.0 μM-10 μM inhibitor. […] Luminescent signal was detected using a SpectraMax M5 (Molecular Devices). Maximal luminescence (no PI3K activity/maximal PI3K inhibition) was determined from reaction buffer plus SC-PI substrate only controls. The minimal signal (maximal PI3K activity) was determined by the 0.0 μM compound (DMSO only) control. IC50 values were calculated via non-linear regression using GraphPad Prism data analysis software.
as §3

The next assay deals with T3, MELK (Homo sapiens, UniProt Q14680).
T3 construct: purchased Invitrogen or Millipore
Description: MELK kinase assay (KinaseGLO). Here is the method: as §1
MELK kinase assay: The ability of compounds to inhibit MELK was also determined using the KinaseGLO assay. Briefly, MELK enzymes was thawed and diluted to a final concentration of 2.64 ng/μL in reaction buffer (50 mM HEPES, pH7.5, 100 mM NaCl, 2.0 mM DTT, 3.0 mM MgCl2, 1.0 mM EGTA, 10 μM ATP). 19 μl of this kinase reaction mixture was aliquoted into test wells (50 ng MELK/well) in a Microfluor2 white 96-well plate (Thermo Scientific). As a preincubation step, 1 μl of 30× compound dilutions was added to the appropriate test wells to generate a ten point dose-response ranging from 0.0 μM-10 μM inhibitor, and incubated for 15 minutes at 4° C. The reaction was started by addition of 10 μL of 150 μM ZIPtide peptide substrate resuspended in reaction buffer (50 μM final concentration of ZIPtide). Reactions were incubated at room temperature for 2 hours prior to addition of 30 μL of KinaseGLO reagent and development as described. Maximal luminescence (no MELK activity/maximal MELK inhibition) was determined from reaction buffer plus peptide substrate only controls. The minimal signal (maximal MELK activity) was determined by the 0.0 μM compound (DMSO only) control. IC50 values were calculated via non-linear regression using GraphPad Prism data analysis software. […]
Compounds of the invention were assayed against the select kinases using the KinaseGLO assay (MELK) or the radiometric assay (PIM, TRKC, PDGFRα(D842V), MNK1 and mTOR). IC50 values were determined using 8-10 point half-log dose dilutions and calculated via nonlinear regression analysis using Graphpad Prism data analysis software.

pIC50: −log10 of the molar value. A value given as a limit tells only on which side of the number the result lay.

T1 sequence (P42336 whole entry): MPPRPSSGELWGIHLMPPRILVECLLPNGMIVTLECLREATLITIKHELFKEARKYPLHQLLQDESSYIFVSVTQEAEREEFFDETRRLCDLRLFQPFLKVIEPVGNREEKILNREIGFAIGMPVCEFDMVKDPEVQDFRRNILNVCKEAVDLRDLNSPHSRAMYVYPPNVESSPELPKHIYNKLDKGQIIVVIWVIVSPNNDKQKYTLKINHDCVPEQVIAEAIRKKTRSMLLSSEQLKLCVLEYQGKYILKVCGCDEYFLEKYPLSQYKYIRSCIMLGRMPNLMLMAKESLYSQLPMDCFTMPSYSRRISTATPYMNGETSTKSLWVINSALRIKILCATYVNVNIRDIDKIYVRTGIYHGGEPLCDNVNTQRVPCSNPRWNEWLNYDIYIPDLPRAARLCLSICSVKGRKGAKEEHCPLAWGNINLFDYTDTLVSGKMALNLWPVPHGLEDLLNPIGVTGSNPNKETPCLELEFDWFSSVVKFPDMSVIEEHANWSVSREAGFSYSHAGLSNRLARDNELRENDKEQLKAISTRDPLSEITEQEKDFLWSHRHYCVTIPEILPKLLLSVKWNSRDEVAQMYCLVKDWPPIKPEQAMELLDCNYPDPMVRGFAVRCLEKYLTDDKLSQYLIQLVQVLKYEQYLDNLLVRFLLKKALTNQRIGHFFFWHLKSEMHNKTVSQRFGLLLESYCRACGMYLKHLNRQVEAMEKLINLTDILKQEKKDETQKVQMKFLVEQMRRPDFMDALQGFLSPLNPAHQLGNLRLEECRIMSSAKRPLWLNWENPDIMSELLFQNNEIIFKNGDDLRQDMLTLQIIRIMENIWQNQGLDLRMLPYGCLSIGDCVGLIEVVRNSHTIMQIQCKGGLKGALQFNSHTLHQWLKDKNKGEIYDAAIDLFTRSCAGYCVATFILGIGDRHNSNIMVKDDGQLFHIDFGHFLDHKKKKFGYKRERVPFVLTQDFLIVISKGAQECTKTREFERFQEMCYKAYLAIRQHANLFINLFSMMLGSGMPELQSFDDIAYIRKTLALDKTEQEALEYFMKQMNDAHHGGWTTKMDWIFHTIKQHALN
T1 sequence (P27986 whole entry partner): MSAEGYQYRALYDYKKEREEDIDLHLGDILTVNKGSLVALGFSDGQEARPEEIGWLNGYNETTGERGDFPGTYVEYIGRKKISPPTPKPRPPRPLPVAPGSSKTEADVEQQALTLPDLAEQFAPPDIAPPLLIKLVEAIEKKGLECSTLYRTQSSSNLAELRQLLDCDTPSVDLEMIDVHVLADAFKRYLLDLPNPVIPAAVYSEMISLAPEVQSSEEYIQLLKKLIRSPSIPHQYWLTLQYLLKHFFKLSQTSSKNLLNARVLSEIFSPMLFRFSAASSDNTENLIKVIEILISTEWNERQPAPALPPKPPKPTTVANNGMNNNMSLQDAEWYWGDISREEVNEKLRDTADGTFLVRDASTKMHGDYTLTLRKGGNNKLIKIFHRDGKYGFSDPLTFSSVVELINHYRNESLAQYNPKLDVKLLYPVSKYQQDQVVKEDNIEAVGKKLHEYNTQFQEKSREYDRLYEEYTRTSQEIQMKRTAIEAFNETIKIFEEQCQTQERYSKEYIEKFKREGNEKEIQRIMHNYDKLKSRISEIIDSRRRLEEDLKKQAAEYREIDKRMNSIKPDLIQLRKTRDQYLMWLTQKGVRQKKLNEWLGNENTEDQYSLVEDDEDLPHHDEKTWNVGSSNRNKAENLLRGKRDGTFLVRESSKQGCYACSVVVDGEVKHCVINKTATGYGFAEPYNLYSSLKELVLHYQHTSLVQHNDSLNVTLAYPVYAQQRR
T2 sequence (P42338 whole entry): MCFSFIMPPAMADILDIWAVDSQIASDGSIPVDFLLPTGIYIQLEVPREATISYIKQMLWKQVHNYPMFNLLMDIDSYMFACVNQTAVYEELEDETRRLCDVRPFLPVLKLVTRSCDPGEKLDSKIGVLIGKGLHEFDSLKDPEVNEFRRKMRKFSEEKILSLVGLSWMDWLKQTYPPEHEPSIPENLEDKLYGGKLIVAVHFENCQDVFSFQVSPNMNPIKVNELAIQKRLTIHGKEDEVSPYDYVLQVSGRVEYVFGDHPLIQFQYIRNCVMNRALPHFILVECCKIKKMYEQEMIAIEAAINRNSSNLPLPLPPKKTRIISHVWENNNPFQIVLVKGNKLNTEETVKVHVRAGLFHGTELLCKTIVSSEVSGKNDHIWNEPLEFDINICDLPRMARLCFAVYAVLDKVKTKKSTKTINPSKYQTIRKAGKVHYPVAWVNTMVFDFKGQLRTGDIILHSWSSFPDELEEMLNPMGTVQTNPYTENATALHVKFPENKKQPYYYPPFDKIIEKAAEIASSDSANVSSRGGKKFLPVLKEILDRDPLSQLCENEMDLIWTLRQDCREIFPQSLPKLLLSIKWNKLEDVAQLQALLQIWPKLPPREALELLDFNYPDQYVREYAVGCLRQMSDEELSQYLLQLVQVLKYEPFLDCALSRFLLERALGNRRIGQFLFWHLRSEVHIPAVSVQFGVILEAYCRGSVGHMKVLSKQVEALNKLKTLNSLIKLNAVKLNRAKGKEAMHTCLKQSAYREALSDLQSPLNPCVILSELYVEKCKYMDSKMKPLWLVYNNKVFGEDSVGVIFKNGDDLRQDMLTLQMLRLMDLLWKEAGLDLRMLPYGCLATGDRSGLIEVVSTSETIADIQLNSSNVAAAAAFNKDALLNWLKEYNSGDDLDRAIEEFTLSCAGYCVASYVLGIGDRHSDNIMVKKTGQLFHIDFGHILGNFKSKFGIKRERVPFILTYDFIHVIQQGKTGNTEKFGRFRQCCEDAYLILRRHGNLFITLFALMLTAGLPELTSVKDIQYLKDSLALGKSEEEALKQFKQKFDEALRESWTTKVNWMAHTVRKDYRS
T2 sequence (P27986 whole entry partner): as the sequence (P27986 whole entry partner) above
T3 sequence (Q14680 whole entry): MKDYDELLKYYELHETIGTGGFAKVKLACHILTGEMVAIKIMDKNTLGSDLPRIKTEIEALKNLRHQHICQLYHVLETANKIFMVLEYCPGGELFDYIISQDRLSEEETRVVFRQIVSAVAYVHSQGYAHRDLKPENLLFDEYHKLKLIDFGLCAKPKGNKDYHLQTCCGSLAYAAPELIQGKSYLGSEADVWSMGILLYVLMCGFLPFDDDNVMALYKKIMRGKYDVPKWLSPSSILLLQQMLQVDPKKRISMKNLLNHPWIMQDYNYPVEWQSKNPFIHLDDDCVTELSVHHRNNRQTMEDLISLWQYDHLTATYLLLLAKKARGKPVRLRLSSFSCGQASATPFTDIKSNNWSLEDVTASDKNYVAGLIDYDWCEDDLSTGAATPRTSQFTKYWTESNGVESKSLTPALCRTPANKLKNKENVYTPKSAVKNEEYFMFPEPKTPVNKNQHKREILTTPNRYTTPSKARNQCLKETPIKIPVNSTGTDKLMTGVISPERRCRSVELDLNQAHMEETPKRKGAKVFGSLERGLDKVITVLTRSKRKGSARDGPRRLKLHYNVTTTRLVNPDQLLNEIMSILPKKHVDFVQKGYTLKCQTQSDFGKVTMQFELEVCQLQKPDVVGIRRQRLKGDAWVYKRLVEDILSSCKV

For `CC(C)(C#N)c1ccc(-c2n[nH]c3cnc4ccc(-c5cccnc5)cc4c23)cc1` [Compound 1107, 2-methyl-2-(4-(8-(pyridin-3-yl)-3H-pyrazolo[3,4-c]quinolin-1-yl)phenyl)propanenitrile], the negative-log IC50 (pIC50) against PI3Kα is greater than 8.00; on PI3Kβ, 7.30 to 7.46; against MELK, greater than 7.92.

As to `CC(C)(C#N)c1ccc(-c2n[nH]c3cnc4ccc(-c5cnc6ccccc6c5)cc4c23)cc1` [Compound 1078, 2-methyl-2-(4-(8-(quinolin-3-yl)-3H-pyrazolo[3,4-c]quinolin-1-yl)phenyl)propanenitrile], the negative logarithm of the IC50 (pIC50) was less than 7.70 against PI3Kα, less than 7.30 on PI3Kβ and less than 7.52 on MELK.

Regarding `CC(C)(C#N)c1ccc(-c2n[nH]c3cnc4ccc(-c5ccc6ncccc6c5)cc4c23)cc1` [Compound 1110, 2-methyl-2-(4-(8-(quinolin-6-yl)-3H-pyrazolo[3,4-c]quinolin-1-yl)phenyl)propanenitrile], the negative-log IC50 (pIC50) against PI3Kα is greater than 8.00; against PI3Kβ it was less than 7.30; on MELK, less than 7.52.

For the origin of these results see patent publication US20110212053A1, “PHOSPHATIDYLINOSITOL 3 KINASE INHIBITORS” (priority 2008, published 2011).
